# In article PMC5193068, “Application of Mice Humanized for CYP2D6 to the Study of Tamoxifen Metabolism and Drug–Drug Interaction with Antidepressants” (Drug Metabolism and Disposition, 2017):
# Values joined by “and” are separate entries in the source; they are usually repeats but may differ in a detail not shown here. Identical values can stand only once. Like-named read-outs stand apart in the source and are kept apart here.
# Experiments:
# [1] = design: method as in Chang et al., 2016; settings: hPXR/hCAR/h3A4/3A7/2D6 mice, single dose of 20 mg/kg tamoxifen; ref Chang et al., 2016; cited from earlier work
# [2] = Preliminary single oral dose of tamoxifen in hCYP2D6 mice, blood metabolite concentrations; assay type: in vivo; settings: single 15-mg/kg oral dose of tamoxifen; for Cmax: hCYP2D6 (CYP2D6-humanized mouse line), mouse, blood, preliminary, data not shown
# [3] = system: estrogen receptor (ER); design: method as in Johnson et al., 2004; settings: ref Johnson et al., 2004; cited from earlier work
# [4] = system: CYP2C19; experiment: Correlation of NDT hydroxylation with P450 probe substrate metabolism in panel of 13 HLMs (2C19); assay type: in vitro ADME, human; settings: 2C19, S-mephenytoin 4′-hydroxylation
# Procedure: (§1) All in vitro analyses were carried out in 100 mM potassium phosphate buffer, pH 7.4, containing 3.3 mM MgCl2, with agitation at 400 rpm at 37°C on a thermoshaker. All samples were handled in amber tubes under conditions of subdued light for the duration of the procedure. […] Assays to determine the apparent kinetic parameters of endoxifen formation in hCYP2D6 mouse liver microsomes (MLMs) were performed in triplicate under conditions of linearity for time (6 minutes) and hCYP2D6 protein (0.0625 mg/ml). All subsequent assays were carried out under the same conditions, irrespective of the microsome source, with 5 µM N-desmethyltamoxifen (NDT) as substrate. […] Solvent (methanol) concentrations were 0.2% or lower in all incubations.
# (§2) Spearman’s rank correlations and inhibition parameters of ADs were calculated using GraphPad Prism software (version 6; GraphPad Inc., La Jolla, CA).
# [5] = system: CYP2E1; experiment: Correlation of NDT hydroxylation with P450 probe substrate metabolism in panel of 13 HLMs (2E1); assay type: in vitro ADME, human; settings: 2E1, Chlorzoxazone 6-hydroxylation
# Procedure: as §1, §2
# [6] = biological target: T1, CYP2D6 (Homo sapiens, UniProt P10635); experiment: Apparent kinetic parameters of endoxifen formation from NDT in hCYP2D6 mouse liver microsomes; assay type: in vitro ADME; design: Assays to determine the apparent kinetic parameters of endoxifen formation in hCYP2D6 mouse liver microsomes (MLMs) were performed in triplicate; tissue Taconic (animals); host or cells: liver microsomes pooled from four hCYP2D6 (CYP2D6-humanized, murine Cyp2d deleted) mice; settings: hCYP2D6 MLMs 0.0625 mg/ml, 6 min, substrate inhibition model
# Procedure: as §1, §2
# [7] = system: CYP2C9; experiment: Correlation of NDT hydroxylation with P450 probe substrate metabolism in panel of 13 HLMs (2C9); assay type: in vitro ADME, human; settings: 2C9, Diclofenac 4′-hydroxylation
# Procedure: as §1, §2
# [8] = 2013, Jager et al., 2014, cited from earlier work
# [9] = system: CYP1A2; experiment: Correlation of NDT hydroxylation with P450 probe substrate metabolism in panel of 13 HLMs (1A2); assay type: in vitro ADME, human; settings: 1A2, Phenacetin O-deethylation
# Procedure: (§3) All in vitro analyses were carried out in 100 mM potassium phosphate buffer, pH 7.4, containing 3.3 mM MgCl2, with agitation at 400 rpm at 37°C on a thermoshaker. All samples were handled in amber tubes under conditions of subdued light for the duration of the procedure. […] All subsequent assays were carried out under the same conditions, irrespective of the microsome source, with 5 µM N-desmethyltamoxifen (NDT) as substrate. […] Solvent (methanol) concentrations were 0.2% or lower in all incubations.
# as §2
# [10] = biological target: T1, CYP2D6; experiment: Correlation of NDT hydroxylation with P450 probe substrate metabolism in panel of 13 HLMs (2D6); assay type: in vitro ADME; design: Assays to determine the apparent kinetic parameters of endoxifen formation in hCYP2D6 mouse liver microsomes (MLMs) were performed in triplicate; tissue Taconic (animals); host or cells: liver microsomes pooled from four hCYP2D6 (CYP2D6-humanized, murine Cyp2d deleted) mice; settings: 2D6, Bufuralol 1′-hydroxylation
# Procedure: as §1, §2
# [11] = biological target: T1, CYP2D6; design: Assays to determine the apparent kinetic parameters of endoxifen formation in hCYP2D6 mouse liver microsomes (MLMs) were performed in triplicate; tissue Taconic (animals); host or cells: liver microsomes pooled from four hCYP2D6 (CYP2D6-humanized, murine Cyp2d deleted) mice; method as in Desta et al. (2004); settings: two individual HLM preparations; ref Desta et al. (2004); read-out: Km (endoxifen formation); cited from earlier work
# [12] = system: CYP2B6; experiment: Correlation of NDT hydroxylation with P450 probe substrate metabolism in panel of 13 HLMs (2B6); assay type: in vitro ADME, human; settings: 2B6, S-mephenytoin N-demethylation
# Procedure: as §3, §2
# [13] = system: CYP3A4; experiment: Correlation of NDT hydroxylation with P450 probe substrate metabolism in panel of 13 HLMs (3A4); assay type: in vitro ADME, human; settings: 3A4, Testosterone 6β-hydroxylation
# Procedure: as §3, §2
# [14] = system: CYP2C8; experiment: Correlation of NDT hydroxylation with P450 probe substrate metabolism in panel of 13 HLMs (2C8); assay type: in vitro ADME, human; settings: 2C8, Paclitaxel 6α-hydroxylation
# Procedure: as §3, §2
# [15] = system: CYP2A6; experiment: Correlation of NDT hydroxylation with P450 probe substrate metabolism in panel of 13 HLMs (2A6); assay type: in vitro ADME, human; settings: 2A6, Coumarin 7-hydroxylation
# Procedure: as §3, §2
# [16] = Preliminary tolerability of single doses of NDT in mice; assay type: in vivo; settings: single doses of NDT required to achieve about 200 ng/ml, data not shown
# [17] = Endoxifen formation from NDT in Cyp2dKO mouse liver microsomes; assay type: in vitro ADME; settings: 5 µM NDT as substrate
# Procedure: as §3
# [18] = biological target: T1, CYP2D6; experiment: biochemical
# Procedure: as §3, §2
# [19] = biological target: T1, CYP2D6; settings: female, hCYP2D6 (mice humanized for CYP2D6), mouse, in vivo
# Procedure: All animal work was carried out on 8- to 12-week-old female mice. […] NDT was suspended in corn oil at 2 mg/ml for oral administration at 10 mg/kg (5 µl/g body weight). For sample collection for pharmacokinetic (PK) analysis, 10 µl whole blood was withdrawn from the tail vein at the indicated time points. Samples were immediately added to a tube containing heparin solution (10 µl, 15 IU/ml) and stored at −20°C until processing.
# In vivo PK samples were thawed by the addition of 70 µl acetonitrile containing the internal standard (tamoxifen-d5 at 0.2 µg/ml). After incubation on ice for 10 minutes, in vivo and in vitro samples were vortexed (5 seconds) and centrifuged for 10 minutes at 16,000g. The supernatant was added to 96-well plates for liquid chromatography (LC)–tandem mass spectrometry (MS/MS).
# Analysis of in vitro incubation and in vivo blood PK samples was carried out on a Waters Acquity ultra-performance LC system and a Micromass Quattro Premier mass spectrometer (both Micromass, Manchester, UK). […] Acquired data were analyzed in QuanLynx (Waters, Milford, MA) relative to analyte standard curves spanning the range of concentrations under study.
# Plasma levels of both of these compounds, and of endoxifen, were monitored over the following 48-hour period.
# [20] = system: E0771 cells; experiment: Estradiol dependence of E0771 cell growth in vitro; assay type: cell-based, mouse; settings: Supplemental Fig. 2
# [21] = biological target: T1, CYP2D6; settings: read-out: Ki for inhibition of dextromethorphan O-demethylation; HLMs; ref Bertelsen et al. (2003); cited from earlier work
# [22] = system: murine plasma proteins; design: method as in van Harten, 1993; Qin et al., 2016; settings: mouse plasma; ref van Harten, 1993; Qin et al., 2016; cited from earlier work
# [23] = design: method as in gsk-clinicalstudyregister.com study 29060/474; settings: patients receiving 40 mg/d paroxetine; ref gsk-clinicalstudyregister.com study 29060/474; cited from earlier work
# T1 sequence (P10635 whole entry): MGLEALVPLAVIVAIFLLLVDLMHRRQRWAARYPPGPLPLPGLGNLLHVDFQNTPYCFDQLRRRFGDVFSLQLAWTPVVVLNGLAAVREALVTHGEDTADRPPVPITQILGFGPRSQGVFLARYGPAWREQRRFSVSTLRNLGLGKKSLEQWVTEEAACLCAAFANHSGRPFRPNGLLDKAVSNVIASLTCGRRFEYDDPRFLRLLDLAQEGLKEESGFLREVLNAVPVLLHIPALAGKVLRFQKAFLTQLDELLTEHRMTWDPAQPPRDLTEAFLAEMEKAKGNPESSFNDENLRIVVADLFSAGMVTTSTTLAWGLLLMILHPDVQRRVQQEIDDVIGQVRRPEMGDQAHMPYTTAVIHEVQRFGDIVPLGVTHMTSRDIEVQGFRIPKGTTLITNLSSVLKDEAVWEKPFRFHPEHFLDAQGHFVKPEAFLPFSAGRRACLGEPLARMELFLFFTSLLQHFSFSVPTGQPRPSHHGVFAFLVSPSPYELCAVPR
compound,measurement,setting,value
"CC/C(=C(\c1ccc(O)cc1)c1ccc(OCCN(C)C)cc1)c1ccccc1 [4-HT, 4-hydroxytamoxifen]",4-HT levels relative to NDT,[1],5.4 fold
same,Cmax,[1],248 ng/mL
same,Cmax,[2],235 ng/mL
same,blood concentration of 4-HT relative to NDT,[2],2.7 fold
same,potency as estrogen receptor (ER) antagonist relative to the parent compound (tamoxifen),[3],up to 100 times
"CC/C(=C(\c1ccccc1)c1ccc(OCCNC)cc1)c1ccccc1 [NDT, N-desmethyltamoxifen]",SRCC with NDT Hydroxylation,[4],−0.220
same,SRCC with NDT Hydroxylation,[5],0.311
same,Cmax,[1],46 ng/mL
same,"KS1 (apparent, endoxifen formation from NDT)",[6],5.1 ± 0.4 µM
same,"KS2 (apparent, endoxifen formation from NDT)",[6],3.9 ± 0.3 µM
same,Cmax,[2],86 ng/mL
same,SRCC with NDT Hydroxylation,[7],0.526
same,mean steady-state concentration in patient serum,"[8]; patients on tamoxifen, ref Stearns et al., 2003, Madlensky et al., 2011, Lien et al.",approximately 200 ng/ml
same,average blood plasma steady-state Cmax,"[8]; patients receiving 20 mg tamoxifen per day, ref Lien et al.",approximately 200 ng/ml
same,SRCC with NDT Hydroxylation,[9],−0.289
same,SRCC with NDT Hydroxylation,[10],0.698
same,Km,[11],4.5 µM and 5.9 µM
same,SRCC with NDT Hydroxylation,[12],0.572
same,SRCC with NDT Hydroxylation,[13],−0.005
same,SRCC with NDT Hydroxylation,[14],0.380
same,SRCC with NDT Hydroxylation,[15],0.161
same,tolerability of single doses,[16],not well tolerated by all animals
same,endoxifen formation by Cyp2dKO liver microsomes,[17],did not produce detectable levels
CN(C)CCC=C1c2ccccc2CCc2ccccc21 [amitriptyline],Ki,[18],720 nM
"CC/C(=C(\c1ccc(O)cc1)c1ccc(OCCNC)cc1)c1ccccc1 [endoxifen, 4-hydroxy-N-desmethyltamoxifen]",endoxifen levels in hCYP2D6 mice relative to human subjects,[19],2.5-13 fold
same,potency as estrogen receptor (ER) antagonist relative to the parent compound (tamoxifen),[3],up to 100 times
C[C@]12CC[C@@H]3c4ccc(O)cc4CC[C@H]3[C@@H]1CC[C@@H]2O [estradiol],dependence of E0771 cell growth on estradiol,[20],no dependence whatsoever
Fc1ccc([C@@H]2CCNC[C@H]2COc2ccc3c(c2)OCO3)cc1 [paroxetine],Ki,[21],360 nM
same,binding with murine plasma proteins,[22],> 96%
same,steady-state Cmax,[23],approximately 150 ng/ml
